# Measurements published in US5770617A, “Terbenzimidazoles useful as antifungal agents” (Rutgers, The State University of New Jersey, priority 1997, dated 1998).
# Molecular target: T1, human topoisomerase I (Homo sapiens, UniProt P11387)
# T1 construct: made in house; host or cells: Escherichia coli BL21 (DE3) harboring PET1B
# T1 sequence (P11387 1-765): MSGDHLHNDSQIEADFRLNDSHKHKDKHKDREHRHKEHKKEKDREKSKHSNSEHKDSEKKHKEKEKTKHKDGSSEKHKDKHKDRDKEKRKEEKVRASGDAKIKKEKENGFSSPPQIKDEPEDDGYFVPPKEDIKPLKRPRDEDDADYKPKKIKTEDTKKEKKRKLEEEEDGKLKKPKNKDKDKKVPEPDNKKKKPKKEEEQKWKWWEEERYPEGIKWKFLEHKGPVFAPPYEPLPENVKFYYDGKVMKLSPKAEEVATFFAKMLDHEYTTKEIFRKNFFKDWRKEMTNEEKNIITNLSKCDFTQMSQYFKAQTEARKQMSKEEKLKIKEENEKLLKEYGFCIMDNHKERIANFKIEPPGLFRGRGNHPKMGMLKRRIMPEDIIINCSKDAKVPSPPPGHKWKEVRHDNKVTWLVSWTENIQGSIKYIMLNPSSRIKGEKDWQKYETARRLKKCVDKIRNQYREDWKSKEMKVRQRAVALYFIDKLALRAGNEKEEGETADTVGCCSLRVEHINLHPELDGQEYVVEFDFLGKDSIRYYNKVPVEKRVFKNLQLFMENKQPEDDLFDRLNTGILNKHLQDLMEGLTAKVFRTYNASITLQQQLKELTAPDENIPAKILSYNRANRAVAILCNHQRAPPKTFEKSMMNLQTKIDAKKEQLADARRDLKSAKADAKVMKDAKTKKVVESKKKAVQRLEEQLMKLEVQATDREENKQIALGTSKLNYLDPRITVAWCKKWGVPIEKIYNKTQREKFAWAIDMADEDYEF
# Assay: Topoisomerase I cleavage assay, human enzyme
# Type: biochemical
# Conditions: recombinant human topoisomerase I
# Method: Plasmid YEpG was also purified by the alkali lysis method followed by phenol deproteination and CsCl/ethidium isopycnic centrifugation as described by T. Maniatis et al., Molecular Cloning, A Laboratory Manual, Cold Spring Harbor Labs, N.Y. (1982) at pages 149-185. The end-labeling of the plasmid was accomplished as previously described by L. F. Liu et al., J. Biol. Chem., 258, 15365 (1983). The cleavage assays were performed as previously reported by A. Y. Chen et al., Cancer Res., 53, 1332 (1993). Human topoisomerase I was isolated as a recombinant fusion protein using a T7 expression system.
# Subsequent steps in purification were the same as described previously for purification of recombinant human DNA topoisomerase I (B. Gatto et al., Cancer Res., 56, 2795 (1996)). Briefly, the supernatant was chromatographed directly onto a hydroxyapatite Bio-gel HTP (BioRad Laboratories, Richmond, Calif.) column. Fractions containing relaxation activity were pooled, diluted and then loaded onto a BioRex70 column (BioRad Laboratories, Richmond, Calif.). The column was developed with a linear gradient from 0.2 to 1M KCl. The peak fractions were pooled and dialyzed overnight at 4° C. against 30 mM potassium phosphate, 50% glycerol (v/v), 0.5 mM EDTA, and 1 mM DTT. Recombinant human topoisomerase I was purified from Escherichia coli BL21 (DE3) harboring PET1B as described previously (Gatto et al., Cancer Res., 56, 2795 (1996)).
# DNA topoisomerase I cleavage assays were performed as described by Y.-H. Hsiang et al., J. Biol. Chem., 260, 14873 (1985). YEpG DNA was linearized with BamHI and then 3 '-end-labeled with Klenow polymerase and α[-^32 P]dCTP. Following phenol extraction and ethanol precipitation, the labeled DNA was resuspended in 10 mM Tris, pH 8.0, and 1 mM EDTA. The DNA cleavage assay was done in a reaction mixture (20 μl) containing 40 mM Tris-HCl, pH 7.8, 100 mM KCl, 10 mM MgCl2, 0.5 mM dithiothreitol, 0.5 mM EDTA, 30 μg/ml bovine serum albumin, 20 ng of labeled YEpG DNA, and […] of Aspergillus or human topoisomerase I diluted to various extents. Following incubation at 23° C. for 15 minutes, the reactions were terminated by the addition of SDS (final concentration 1%) and proteinase K (final concentration 200 μg/ml). Proteinase K treatment continued at 37° C. for another 1 hour. The terminated reactions were either alkali-denatured and then loaded (alkaline loading) or loaded directedly in neutral loading buffer (neutral loading) onto a 1% agarose gel in neutral TPE electrophoresis solution. Gel drying and autoradiography were performed as described by Hsiang et al., cited above.
row,Structure (SMILES),"sensitivity of human topoisomerase I to poisoning / DNA cleavage with human topoisomerase I, in words"
1,"N#Cc1ccc2[nH]c(-c3ccc4[nH]c(-c5ccc6[nH]cnc6c5)nc4c3)nc2c1 [Compound 11, 5-Cyano-2-[2'-(benzimidazol-5""-yl)benzimidazol-5'-yl]benzimidazole]",sensitive
2,"c1ccc(-c2ccc3[nH]c(-c4ccc5[nH]c(-c6ccc7[nH]cnc7c6)nc5c4)nc3c2)cc1 [Compound 13, 5-Phenyl-2-[2'(benzimidazol-5""-yl)benzimidazol-5'-yl]benzimidazole]",sensitive
3,"CCOc1ccc(-c2nc3cc(-c4nc5cc(N6CCN(C)CC6)ccc5[nH]4)ccc3[nH]2)cc1 [Hoechst 33342, 2'-(4-ethoxyphenyl)-5-(4-methyl-1-piperazinyl)-2,5'-bi-1H-benzimidazole]",sensitive
4,CC[C@@]1(O)C(=O)OCc2c1cc1n(c2=O)Cc2cc3ccccc3nc2-1 [camptothecin],sensitive
